# Laboratory results published in publication PMC9866460, “Antifungal Combination Eye Drops for Fungal Keratitis Treatment” (Pharmaceutics, 2022).
# Key:
# [1] = Particle size of cyclodextrin/drug aggregates by TEM; format: physicochemical
# Method: Samples were placed on copper grids and stained with 2% (w/v) phosphotungstic acid. Samples were dried and evaluated by TEM observation using an accelerating voltage of 200 kV.
# Particle size was measured using Image-Pro Plus Image Analysis Software Version 6.0.0.260 (Media Cybernetics, Inc., Rockville, MD, USA).
# physchem = format: physicochemical
# Method: The solubility assay was based on the addition of an excess of the drug to different solutions with increasing concentrations of two different cyclodextrins, 2-hydroxypropyl-β-cyclodextrin (HPβCD) or 2-hydroxypropyl-ɣ-cyclodextrin (HPγCD). […] Afterwards, the resultant solutions were centrifugated (Eppendorf® Centrifuge 5804R) at 12,000 rpm for 30 min and 25 °C. […] Each measurement was performed in triplicate.
smiles,measurement,setting,value
C[C@@H]1C/C=C/C=C/C=C/C=C/[C@H](O[C@@H]2O[C@H](C)[C@@H](O)[C@H](N)[C@@H]2O)C[C@@H]2O[C@](O)(C[C@@H](O)C[C@H]3O[C@@H]3/C=C/C(=O)O1)C[C@H](O)[C@H]2C(=O)O [Natamycin],average particle size (TEM),[1]; saturated solution of natamycin in 40% (w/v) HPβCD,80.25 ± 35.81 nm
same,average particle size (TEM),[1]; saturated solution of natamycin in 40% (w/v) HPβCD with 1% (w/v) voriconazole,148.96 ± 32.89 nm
same,solubility at 7 days,physchem,0.0353 ± 0.014 mg/mL
